The assay relates to CD8F1 mice, subcutaneous mammary adenocarcinoma, T/C%. Kind of assay: NCI In Vivo Anticancer Drug Screen. Data for tumor model Mammary Adenocarcinoma CD8F1 (subcutaneous) in CD8F1. The following applies: higher = larger tumour. A digest of the protocol: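 Mice carrying transplanted tumors received test compound, and survival or tumor size was recorded. Each value is the treated-group measurement divided by the corresponding measurement in vehicle-dosed controls.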

Setting [1] is: endpoint: median tumor weight change, dose: 100.0 mg/kg/injection, schedule: Q01DX001 (ip), vehicle: saline.
Setting [2] is: endpoint: median tumor weight change, dose: 200.0 mg/kg/injection, schedule: Q01DX001 (ip), vehicle: saline.
Where [3] appears, read: endpoint: median tumor weight change, dose: 400.0 mg/kg/injection, schedule: Q01DX001 (ip), vehicle: saline.
[4] abbreviates: endpoint: median tumor weight change, dose: 125.0 mg/kg/injection, schedule: Q01DX001 (ip), vehicle: saline with Tween-80.
Where [5] appears, read: endpoint: median tumor weight change, dose: 250.0 mg/kg/injection, schedule: Q01DX001 (ip), vehicle: saline with Tween-80.
Where [6] appears, read: endpoint: median tumor weight (est.), dose: 25.0 mg/kg/injection, schedule: Q07DX005 (ip), vehicle: Klucel (hydroxypropylcellulose) (HPC).
[7] abbreviates: endpoint: median tumor weight (est.), dose: 50.0 mg/kg/injection, schedule: Q07DX005 (ip), vehicle: Klucel (hydroxypropylcellulose) (HPC).

Molecules are shown by their SMILES. Records with an inconclusive call do not appear. Starred links: 1 amine or outer side, 2 acyl side, 3 side chain; linkers in the order of their positions; H or OH if unused. Non-standard residues stand in square brackets, D forms with d. Residues, ends and D or L forms follow the SMILES beside them. *: point of attachment. X2 = CCC(=O)CC1CC(C)CC(C(=O)[*:2])N1[*:1]; X1 = CCCCCCCCC(C)C(=O)*; Aib = CC(C)(N)C(=O)O; X3 = CC(CN(C)CCO)N*

As to `OCC12COCN1COC2`, the T/C reads like this: (endpoint: median tumor weight change, dose: 50.0 mg/kg/injection, schedule: Q01DX001 (ip), vehicle: saline) 100 % of control; under setting [1], 107 % of control; under setting [2], 71 % of control; under setting [3], 87 % of control; (endpoint: median tumor weight change, dose: 800.0 mg/kg/injection, schedule: Q01DX001 (ip), vehicle: saline) 82 % of control.
On to `Cn1c(=O)c2ncnnc2n(C)c1=O`, for which the T/C (endpoint: median tumor weight (est.), dose: 4.7 mg/kg/injection, schedule: Q07DX005 (ip), vehicle: Klucel (hydroxypropylcellulose) (HPC)) is 59 % of control; the T/C (endpoint: median tumor weight (est.), dose: 9.4 mg/kg/injection, schedule: Q07DX005 (ip), vehicle: Klucel (hydroxypropylcellulose) (HPC)) was 63 % of control; the T/C (endpoint: median tumor weight (est.), dose: 18.8 mg/kg/injection, schedule: Q07DX005 (ip), vehicle: Klucel (hydroxypropylcellulose) (HPC)) was 52 % of control.
On to `C#CC[N+]12CN3CN(CN(C3)C1)C2`, for which the T/C is, setting by setting: (endpoint: mean tumor weight, dose: 12.5 mg/kg/injection, schedule: Q07DX007 (ip), vehicle: saline) 48 % of control; (endpoint: mean tumor weight, dose: 25.0 mg/kg/injection, schedule: Q07DX007 (ip), vehicle: saline) 70 % of control; (endpoint: mean tumor weight, dose: 50.0 mg/kg/injection, schedule: Q07DX007 (ip), vehicle: saline) 81 % of control; (endpoint: mean tumor weight, dose: 100.0 mg/kg/injection, schedule: Q07DX007 (ip), vehicle: saline) 150 % of control; (endpoint: mean tumor weight, dose: 200.0 mg/kg/injection, schedule: Q07DX007 (ip), vehicle: saline) 97 % of control.
As for `Cc1cc(Nc2ccc3c(c2)OCO3)c2cc3c(cc2n1)OCO3`, the T/C (endpoint: median tumor weight change, dose: 125.0 mg/kg/injection, schedule: Q01DX001 (ip), vehicle: Klucel (hydroxypropylcellulose) (HPC)) is 54 % of control.
As to `COc1cccc2c1C(=O)c1c(O)c3c(c(O)c1C2=O)C[C@@](O)(C(C)=O)C[C@@H]3OC1CC(N)C(O)C(C)O1` (stereo not given in full), the T/C reads like this: (endpoint: median tumor weight (est.), dose: 0.5 mg/kg/injection, schedule: Q07DX005 (ip), vehicle: water) 41 % of control; (endpoint: median tumor weight (est.), dose: 1.0 mg/kg/injection, schedule: Q07DX005 (ip), vehicle: water) 43 % of control; (endpoint: median tumor weight (est.), dose: 1.2 mg/kg/injection, schedule: Q07DX005 (ip), vehicle: saline) 91 % of control; (endpoint: median tumor weight (est.), dose: 1.78 mg/kg/injection, schedule: Q07DX005 (ip), vehicle: water) 43 % of control; (endpoint: median tumor weight (est.), dose: 1.8 mg/kg/injection, schedule: Q07DX005 (ip), vehicle: saline) 72 % of control; (endpoint: median tumor weight (est.), dose: 2.0 mg/kg/injection, schedule: Q07DX005 (ip), vehicle: water) 38 % of control. The T/C (endpoint: median tumor weight (est.), dose: 2.67 mg/kg/injection, schedule: Q07DX005 (ip), vehicle: water) was 20 % of control and the T/C (endpoint: median tumor weight (est.), dose: 2.7 mg/kg/injection, schedule: Q07DX005 (ip), vehicle: saline) was 61 % of control.
Turning to `CCCCCCCCC(C)C(=O)N1CCCC1C(=O)N1C(CC(=O)CC)CC(C)CC1C(=O)NC(C)C(=O)NC(C)(C)C(=O)NC(C)(C)C(=O)NC(C(=O)NC(C)C(=O)NC(C)(C)C(=O)NC(C)(C)C(=O)NC(C)CN(C)CCO)C(C)CC` (stereo not given) (X1-P[X2]A[Aib][Aib]IA[Aib][Aib]-X3; configuration not given here), the T/C reads like this: (endpoint: median tumor weight change, dose: 3.0 mg/kg/injection, schedule: Q01DX001 (ip), vehicle: saline with Tween-80) 100 % of control; (endpoint: median tumor weight change, dose: 3.12 mg/kg/injection, schedule: Q01DX001 (ip), vehicle: other) 123 % of control.
Consider `O=C1C=C2C(=CCOC2O)O1` (stereo not given), for which the T/C is, setting by setting: (endpoint: median tumor weight (est.), dose: 0.5 mg/kg/injection, schedule: Q07DX005 (ip), vehicle: Klucel (hydroxypropylcellulose) (HPC)) 36 % of control; (endpoint: median tumor weight (est.), dose: 1.0 mg/kg/injection, schedule: Q07DX005 (ip), vehicle: Klucel (hydroxypropylcellulose) (HPC)) 25 % of control; (endpoint: median tumor weight (est.), dose: 1.5 mg/kg/injection, schedule: Q07DX005 (ip), vehicle: saline) 153 % of control; (endpoint: median tumor weight (est.), dose: 2.0 mg/kg/injection, schedule: Q07DX005 (ip), vehicle: Klucel (hydroxypropylcellulose) (HPC)) 25 % of control; (endpoint: median tumor weight (est.), dose: 3.0 mg/kg/injection, schedule: Q07DX005 (ip), vehicle: saline) 87 % of control; (endpoint: median tumor weight (est.), dose: 4.0 mg/kg/injection, schedule: Q07DX005 (ip), vehicle: Klucel (hydroxypropylcellulose) (HPC)) 50 % of control. Besides, the T/C (endpoint: median tumor weight change, dose: 5.0 mg/kg/injection, schedule: Q01DX001 (ip), vehicle: Klucel (hydroxypropylcellulose) (HPC)) is 98 % of control.
Take `CC1C(=O)c2cc3c(cc2CCN(C)Cc2c1ccc1c2OCO1)OCO3` (stereo not given): the T/C was 65 % of control (endpoint: median tumor weight change, dose: 12.5 mg/kg/injection, schedule: Q01DX001 (ip), vehicle: saline with Tween-80) and 64 % of control (endpoint: median tumor weight change, dose: 25.0 mg/kg/injection, schedule: Q01DX001 (ip), vehicle: saline with Tween-80).
With `C[C@H](CCC[C@H](C)OS(=O)(=O)c1ccccc1)OS(=O)(=O)c1ccccc1`, the T/C is, setting by setting: (endpoint: median tumor weight (est.), dose: 25.0 mg/kg/injection, schedule: Q07DX005 (ip), vehicle: saline with Tween-80) 57 % of control; (endpoint: median tumor weight (est.), dose: 50.0 mg/kg/injection, schedule: Q07DX005 (ip), vehicle: saline with Tween-80) 41 % of control; (endpoint: median tumor weight (est.), dose: 100.0 mg/kg/injection, schedule: Q07DX005 (ip), vehicle: saline with Tween-80) 57 % of control; (endpoint: median tumor weight (est.), dose: 200.0 mg/kg/injection, schedule: Q07DX005 (ip), vehicle: saline with Tween-80) 39 % of control.
Turning to `CN=C(N)N/N=C(\C)c1ccc2c(c1)Cc1ccccc1-2`, the T/C was 60 % of control under setting [4] and 55 % of control under setting [5].
In the case of `C1OCN2CSCC12` (stereo not given), the T/C by setting is: under setting [4], 90 % of control; under setting [5], 71 % of control; (endpoint: median tumor weight change, dose: 500.0 mg/kg/injection, schedule: Q01DX001 (ip), vehicle: saline with Tween-80) 82 % of control.
Turning to `NC(Cn1ccc(=O)c(O)c1)C(=O)O` (stereo not given), the T/C under setting [1] is 82 % of control; the T/C under setting [2] is 69 % of control; the T/C under setting [3] is 52 % of control; the T/C (endpoint: median tumor weight change, dose: 1600.0 mg/kg/injection, schedule: Q01DX001 (ip), vehicle: saline) was 72 % of control.
In the case of `CN=C(N)N/N=C(\C)c1ccc2oc3ccc(/C(C)=N/NC(N)=NC)cc3c2c1`, the T/C (endpoint: median tumor weight change, dose: 62.5 mg/kg/injection, schedule: Q01DX001 (ip), vehicle: saline with Tween-80) was 87 % of control and the T/C under setting [4] is 63 % of control.
For `C1CCC2OCCOCCOC3CCCCC3OCCOCCOC2C1` (stereo not given), the T/C (endpoint: median tumor weight (est.), dose: 3.12 mg/kg/injection, schedule: Q07DX005 (ip), vehicle: Klucel (hydroxypropylcellulose) (HPC)) was 90 % of control; the T/C (endpoint: median tumor weight (est.), dose: 6.25 mg/kg/injection, schedule: Q07DX005 (ip), vehicle: Klucel (hydroxypropylcellulose) (HPC)) is 55 % of control; the T/C under setting [6] was 70 % of control; the T/C under setting [7] was 83 % of control.
Consider `COC12C(COC(=O)NCCO)C3=C(C(=O)C(C)=C(N)C3=O)N1CC1NC12` (stereo not given), for which the T/C is 77 % of control (endpoint: median tumor weight change, dose: 12.5 mg/kg/injection, schedule: Q01DX001 (ip), vehicle: Klucel (hydroxypropylcellulose) (HPC)); 78 % of control (endpoint: median tumor weight change, dose: 25.0 mg/kg/injection, schedule: Q01DX001 (ip), vehicle: Klucel (hydroxypropylcellulose) (HPC)); 33 % of control (endpoint: median tumor weight change, dose: 50.0 mg/kg/injection, schedule: Q01DX001 (ip), vehicle: Klucel (hydroxypropylcellulose) (HPC)); -64 % of control (endpoint: median tumor weight change, dose: 100.0 mg/kg/injection, schedule: Q01DX001 (ip), vehicle: Klucel (hydroxypropylcellulose) (HPC)).
Turning to `CN(C)/N=N/c1nc[nH]c1C(N)=O`, the T/C by setting is: (endpoint: median tumor weight (est.), dose: 25.0 mg/kg/injection, schedule: Q07DX004 (ip), vehicle: saline) 102 % of control; under setting [6], 118 % of control; (endpoint: median tumor weight (est.), dose: 50.0 mg/kg/injection, schedule: Q07DX004 (ip), vehicle: saline) 111 % of control; under setting [7], 81 % of control; (endpoint: median tumor weight (est.), dose: 100.0 mg/kg/injection, schedule: Q07DX004 (ip), vehicle: saline) 90 % of control; (endpoint: median tumor weight (est.), dose: 100.0 mg/kg/injection, schedule: Q07DX005 (ip), vehicle: Klucel (hydroxypropylcellulose) (HPC)) 46 % of control. In addition, the T/C (endpoint: median tumor weight (est.), dose: 200.0 mg/kg/injection, schedule: Q07DX004 (ip), vehicle: saline) is 62 % of control; the T/C (endpoint: median tumor weight (est.), dose: 200.0 mg/kg/injection, schedule: Q07DX005 (ip), vehicle: Klucel (hydroxypropylcellulose) (HPC)) was 26 % of control; the T/C (endpoint: median tumor weight (est.), dose: 400.0 mg/kg/injection, schedule: Q07DX004 (ip), vehicle: saline) is 13 % of control; the T/C (endpoint: median tumor weight (est.), dose: 400.0 mg/kg/injection, schedule: Q07DX005 (ip), vehicle: Klucel (hydroxypropylcellulose) (HPC)) was 16 % of control.
With `O=NN(CCCl)C(=O)NCCO`, the T/C was 92 % of control (endpoint: median tumor weight change, dose: 4.0 mg/kg/injection, schedule: Q01DX001 (ip), vehicle: water); 86 % of control (endpoint: median tumor weight change, dose: 8.0 mg/kg/injection, schedule: Q01DX001 (ip), vehicle: water); 58 % of control (endpoint: median tumor weight change, dose: 16.0 mg/kg/injection, schedule: Q01DX001 (ip), vehicle: water).
On to `C=C1N(C)c2ccccc2C1(C)C`, for which the T/C under setting [4] is 115 % of control.

The values are drawn from PubChem BioAssay AID220 (DTP/NCI, 2004).
